Assay results: patent publication US20100003228A1, “T-CELL VACCINE” (priority 2006, published 2010)

Columns and labels:
[1] = test system: myelin reactive T cells in PBMCs; assay: EAA with positivity by Variance Evaluation Method or CPM Variance Method (clinical trials); type: cell-based, human; details: clinical trial population, RR-MS or CIS subjects
Description: The predetermined value may also be calculated using a Variance Evaluation Method as follows: • 1. EAAs may be run on a given patient population (minimum of 120 assays from 120 unique subjects) • 2. A “negative population” may be created by averaging all SI values<2.5 • 3. The Standard Deviation (SD) may be calculated for each peptide • 4. The following for each peptide may be then be calculated: • a. Average+1SD • b. Average+2SD • c. Average+3SD • 5. The following SIs may be considered above the predetermined value: • a. SI greater than or equal to the average+3SD • b. Any SI greater than or equal to 2.5
The predetermined value may also be evaluated using a Counts per Minute (CPM) Variance Method. This algorithm may set a comprehensive cutoff for all peptides within a given assay. It may be calculated as follows: • 1. EAAs may be run and the CPM for all control (media only, no antigen) wells averaged. • 2. The SD for CPM of the control wells may then be calculated. • 3. The following may then be calculated for the control wells: • a. Average+1SD • b. Average+2SD • c. Average+3SD • 4. Any peptide with an average CPM greater than or equal to the average+3SD of the control wells may be considered above the predetermined value.
Any peptide, either analyzed in an individual well or as averaged over wells run in triplicate, with an SI≧2.5, an SI≧average+3SD by the Variance Evaluation Method, or an SI≧average+3SD by the CPM variance method may be considered above the predetermined value, which may indicate a T cell(s) positive for reactivity to a peptide.
The peptides of Example 3 have been tested in 429 EAAs in clinical trials as follows. […] Pre-Vaccine EAAs have 158 positive out of 387 assays (40.8%), with Relapse Remitting MS patients (RRMS) showing 150 positive of 368 assays (40.8%), and Clinically Isolated Syndrome (CIS) patients showing 8 positive of 19 assays (42.1%).
Over the course of 6 months a study was conducted with 120 subjects meeting the criteria for the clinical trial.
The above mentioned population of subjects was evaluated by EAA using the Variance Evaluation Method and CPM Variance Method as described above, and deemed eligible for vaccine production. Of the 120 attempts to manufacture vaccine, there were 2 shipping failures (blood was not received within our stated criteria), 1 culture was lost to contamination and 5 samples arrived with low cell volume/yield. Of the remaining 112 subjects, vaccine was successfully generated in 89 subjects, with 22 still in production (98.9% of eligible samples, 92.5% of all samples completed). From this, a positive EAA was deemed predictive of the ability to manufacture a vaccine to therapeutic dose by methods disclosed herein.

myelin-reactive T cells = assay: Growth of myelin reactive T cell lines with low stimulation indices; type: cell-based, human
Description: Using the algorithms described above, statistically significant SIs as low as 1.3 have been observed and therefore should be able grow in response to antigen. To verify this ability, 5 cell lines across two patients are shown with an SI<2.0. The results are shown in Table 12 and FIG. 24, which indicate growth of these cell lines with only peptide antigen stimulation and common T cell growth factors.
PBMC for subject 1042 were run in the EAA, and […] were positive, including PLPm18 with an SI of 1.8, PLPm26 with an SI of 2.5 and PLPm28 with an SI of 2.5. […] PBMC for subject 1014 were run in the EAA, and 4 mixes were positive, including MBPm14 with an SI of 1.7, PLPm17 with an SI of 1.7, PLPm28 with an SI of 2.2 and MOGm6 with an SI of 1.9. […]
PBMCs were isolated via density gradient centrifugation from peripheral blood obtained through venipuncture into ACD-1 anticoagulant. PBMCs were plated at 2.5E+06 cells/well in 24 well plates. Antigen in the form of 16mer peptides identified in the EAA were added at a final concentration of 20 ug/ml. Interluekin-2 (IL-2) was added at a final concentration of 100 U/ml starting at 48 hours and IL-2 was added at the same concentration with each feeding or splitting of wells. Peptide restimulation in the presence of antigen presenting cells (APCs-autologous PBMCs irradiated at 3500 rad) was done at days 7, 14 and 21. Interleukin-15 (IL-15) was added at a final concentration of 5 ng/ml-20 ng/ml (lot specific) starting at day 14 and continued through the remainder of the culture period. Cells lines were all harvested by day 35 and had achieved expansions of 3.0-8.2 fold.

Substance	# of Subjects (frequency of identification) [1]	% of Subjects (frequency of identification) [1] [%]	Fold Expansion (myelin-reactive T cells; subject 1042, Day 0)	Viable Cell Count, Count/well (myelin-reactive T cells; subject 1042, Day 0)	Viable Cell Count, Total Cells (myelin-reactive T cells; subject 1042, Day 0)	Fold Expansion (myelin-reactive T cells; subject 1042, Day 14)	Viable Cell Count, Count/well (myelin-reactive T cells; subject 1042, Day 14)	Viable Cell Count, Total Cells (myelin-reactive T cells; subject 1042, Day 14)	Fold Expansion (myelin-reactive T cells; subject 1042, Day 19)	Viable Cell Count, Count/well (myelin-reactive T cells; subject 1042, Day 19)	Viable Cell Count, Total Cells (myelin-reactive T cells; subject 1042, Day 19)	Fold Expansion (myelin-reactive T cells; subject 1042, Day 26)	Viable Cell Count, Count/well (myelin-reactive T cells; subject 1042, Day 26)	Viable Cell Count, Total Cells (myelin-reactive T cells; subject 1042, Day 26)	Fold Expansion (myelin-reactive T cells; subject 1042, Day 33)	Viable Cell Count, Count/well (myelin-reactive T cells; subject 1042, Day 33)	Viable Cell Count, Total Cells (myelin-reactive T cells; subject 1042, Day 33)	Fold Expansion (myelin-reactive T cells; subject 1042, Day 35)	Viable Cell Count, Count/well (myelin-reactive T cells; subject 1042, Day 35)	Viable Cell Count, Total Cells (myelin-reactive T cells; subject 1042, Day 35)	other results
PLPm17: mix of PLP 33 and PLP 34 (chain 1 QHQAHSLERVCHCLGK; chain 2 HSLERVCHCLGKWLGH)	14	11.8																			Fold Expansion (myelin-reactive T cells; subject 1014, Day 0): 1.0; Viable Cell Count, Count/well (myelin-reactive T cells; subject 1014, Day 0): 2.50E+06; Viable Cell Count, Total Cells (myelin-reactive T cells; subject 1014, Day 0): 2.25E+07; Fold Expansion (myelin-reactive T cells; subject 1014, Day 17): 0.7; Viable Cell Count, Count/well (myelin-reactive T cells; subject 1014, Day 17): 2.34E+06; Viable Cell Count, Total Cells (myelin-reactive T cells; subject 1014, Day 17): 2.11E+07; Fold Expansion (myelin-reactive T cells; subject 1014, Day 19): 1.2; Viable Cell Count, Count/well (myelin-reactive T cells; subject 1014, Day 19): 3.85E+06; Viable Cell Count, Total Cells (myelin-reactive T cells; subject 1014, Day 19): 3.47E+07; Fold Expansion (myelin-reactive T cells; subject 1014, Day 28): 3.5; Viable Cell Count, Count/well (myelin-reactive T cells; subject 1014, Day 28): 4.77E+06; Viable Cell Count, Total Cells (myelin-reactive T cells; subject 1014, Day 28): 1.05E+08; Fold Expansion (myelin-reactive T cells; subject 1014, Day 33): 2.9; Viable Cell Count, Count/well (myelin-reactive T cells; subject 1014, Day 33): 3.89E+06; Viable Cell Count, Total Cells (myelin-reactive T cells; subject 1014, Day 33): 8.56E+07; Fold Expansion (myelin-reactive T cells; subject 1014, Day 35): 4.7; Viable Cell Count, Count/well (myelin-reactive T cells; subject 1014, Day 35): 4.73E+06; Viable Cell Count, Total Cells (myelin-reactive T cells; subject 1014, Day 35): 1.42E+08
PLPm26: mix of PLP 51 and PLP 52 (chain 1 CADARMYGVLPWNAFP; chain 2 RMYGVLPWNAFPGKVC)	28	23.5	1.0	2.50E+06	3.00E+07	0.6	1.50E+06	1.80E+07	1.0	2.40E+06	2.88E+07	3.0	3.73E+06	8.95E+07	4.2	2.61E+06	1.25E+08	5.7	3.54E+06	1.70E+08	
PLPm18: mix of PLP 35 and PLP 36 (chain 1 RVCHCLGKWLGHPDKF; chain 2 CLGKWLGHPDKFVGIT)	10	8.4	1.0	2.50E+06	3.00E+07	0.4	9.60E+05	1.15E+07	0.8	1.97E+06	2.36E+07	1.2	1.50E+06	3.60E+07	3.0	3.76E+06	9.02E+07	3.0	3.74E+06	8.98E+07	
PLPm28: mix of PLP 55 and PLP 56 (chain 1 GKVCGSNLLSICKTAE; chain 2 GSNLLSICKTAEFQMT)	6	5.0	1.0	2.50E+06	3.00E+07	0.6	1.56E+06	1.87E+07	1.5	3.82E+06	4.58E+07	3.5	4.34E+06	1.04E+08	7.4	4.61E+06	2.21E+08	8.2	5.15E+06	2.47E+08	Fold Expansion (myelin-reactive T cells; subject 1014, Day 0): 1.0; Viable Cell Count, Count/well (myelin-reactive T cells; subject 1014, Day 0): 2.50E+06; Viable Cell Count, Total Cells (myelin-reactive T cells; subject 1014, Day 0): 2.25E+07; Fold Expansion (myelin-reactive T cells; subject 1014, Day 17): 0.9; Viable Cell Count, Count/well (myelin-reactive T cells; subject 1014, Day 17): 3.09E+06; Viable Cell Count, Total Cells (myelin-reactive T cells; subject 1014, Day 17): 2.78E+07; Fold Expansion (myelin-reactive T cells; subject 1014, Day 19): 1.4; Viable Cell Count, Count/well (myelin-reactive T cells; subject 1014, Day 19): 2.41E+06; Viable Cell Count, Total Cells (myelin-reactive T cells; subject 1014, Day 19): 4.34E+07; Fold Expansion (myelin-reactive T cells; subject 1014, Day 28): 2.8; Viable Cell Count, Count/well (myelin-reactive T cells; subject 1014, Day 28): 2.81E+06; Viable Cell Count, Total Cells (myelin-reactive T cells; subject 1014, Day 28): 8.43E+07; Fold Expansion (myelin-reactive T cells; subject 1014, Day 33): 5.2; Viable Cell Count, Count/well (myelin-reactive T cells; subject 1014, Day 33): 5.17E+06; Viable Cell Count, Total Cells (myelin-reactive T cells; subject 1014, Day 33): 1.55E+08; Fold Expansion (myelin-reactive T cells; subject 1014, Day 35): 5.3; Viable Cell Count, Count/well (myelin-reactive T cells; subject 1014, Day 35): 5.33E+06; Viable Cell Count, Total Cells (myelin-reactive T cells; subject 1014, Day 35): 1.60E+08
